Measured values reported in patent publication US20260115250A1, “METHODS OF TREATING AGE-RELATED MACULAR DEGENERATION” (Character Biosciences, Inc., priority 2022, published 2026).
pKd: −log10 of the molar value. Peptide text beside a SMILES is read from it.

Assays:
[1] = system: ARPE-19 cells; assay: ARPE-19 cholesterol efflux; format: cell-based, human; conditions: ARPE-19, 20 μM peptide, 4 hours
Experimental: Fully confluent 96-well plates of ARPE-19 cells were treated for 1 hour in serum-free DMEM containing 10 mM methyl-β-cyclodextrin, 100 μM cholesterol, and 25 μM BODIPY cholesterol. Cells were then washed and incubated overnight in serum-free DMEM containing 1 μM GW3965, 2 μg/mL ACAT inhibitor, and 0.2% BSA (LXR Agonist treated), or serum free DMEM containing 2 μg/mL ACAT inhibitor, and 0.2% BSA (Control). Cells were washed and incubated with 20 μM peptides diluted in serum-free Fluorobrite DMEM for 4 hours at 37° C. Media was transferred to a new 96-well plate and fresh serum-free Fluorobrite DMEM was placed on the cells. Media and cellular fluorescence were read on a Promega GloMax at 475 nm excitation, 500-550 emission. Fluorescence values were background corrected from no treatment conditions and percent efflux was calculated by the following equation: % efflux=(Media Fluorescence values)/(Media+Cell Fluorescence values). Data are presented as mean+SD over two runs per peptide.

[2] = key assays (summary statement on homologous variants)
[3] = system: HMC3 cells; assay: HMC3 cholesterol efflux; format: cell-based, human; conditions: HMC3, 20 μM peptide, 4 hours
Experimental: FIGS. 27A-27B and FIG. 28 illustrate HMC3 cholesterol efflux. Fully confluent 96-well plates of HMC3 cells were treated for 1 hour in serum-free EMEM containing 10 mM methyl-β-cyclodextrin, 100 μM cholesterol, and 25 μM BODIPY cholesterol. Cells were then washed and incubated overnight in serum free EMEM containing 1 μM LXR agonist GW3965, 2 μg/mL ACAT inhibitor, and 0.2% BSA (LXR Agonist treated), or serum-free EMEM containing 2 μg/mL ACAT inhibitor, and 0.2% BSA (Control). Cells were washed and incubated with 20 μM peptides diluted in serum-free Fluorobrite DMEM for 4 hours at 37° C. Media was transferred to a new 96-well plate and fresh serum-free Fluorobrite DMEM was placed on the cells. Media and cellular fluorescence were read on a Promega GloMax at 475 nm excitation, 500-550 emission. Fluorescence values were background corrected from no treatment conditions and percent efflux was calculated by the following equation: % efflux=(Media Fluorescence values)/(Media+Cell Fluorescence values). Data are presented as mean+SD over two runs per peptide.
FIGS. 30A-30J show HMC3 cholesterol efflux titration curves for the indicated peptides. Fully confluent 96-well plates of HMC3 cells were treated for 1 hour in serum-free EMEM containing 10 mM methyl-β-cyclodextrin, 100 μM cholesterol, and 25 μM BODIPY cholesterol. Cells were then washed and incubated overnight in serum free EMEM containing 1 μM GW3965, 2 μg/mL ACAT inhibitor, and 0.2% BSA (LXR Agonist treated), or serum free EMEM containing 2 μg/mL ACAT inhibitor, and 0.2% BSA (Control). Cells were washed and incubated with 0-100 μM peptides serially diluted in serum-free Fluorobrite DMEM for 4 hours at 37° C. Media was transferred to a new 96-well plate and fresh serum-free Fluorobrite DMEM was placed on the cells. Media and cellular fluorescence were read on a Promega GloMax at 475 nm excitation, 500-550 emission. Fluorescence values were background corrected from no treatment conditions and percent efflux was calculated by the following equation: % efflux=(Media Fluorescence values)/(Media+Cell Fluorescence values). Data are presented as mean+SD over two runs per peptide.

[4] = target: T1, ABCA1 (Homo sapiens, UniProt O95477); assay: membrane ABCA1 stability testing in ARPE-19 cells treated with mCRP; format: cell-based; conditions: ARPE-19, mCRP, 20 μM peptide, 24 hours
T1 construct: endogenous in cells; host or cells: ARPE-19
Experimental: ARPE-19 cells were seeded at 100,000 cells per well on 12-well plates and were allowed to grow to confluence. To prepare monomeric CRP (mCRP), recombinant CRP was prepared in a PBS solution containing 8 M Urea and 10 mM EDTA and incubated at 37° C. for 2 hours prior to desalting with a Zeba spin column (7K MW cutoff). mCRP was prepared to a 2× solution of 20 μg/mL. A 2× solution of 40 μM peptides was prepared in serum-free DMEM and serially diluted 1:2 over 4 concentrations. mCRP and peptides were added 1:1 to cells for 24 hours at 37° C. before isolating membrane protein and measuring membrane ABCA1 levels by western blot. Blots were quantified in ImageJ. Signals were further normalized to the LXR agonist treated group to determine percent (%) ABCA1 remaining. Treatment with LXR agonist increased membrane ABCA1 levels in this assay, but following treatment with mCRP, membrane ABCA1 levels were decreased.
FIGS. 35 and 36 show membrane ABCA1 stability testing using ARPE-19 cells. ARPE-19 cells were seeded at 100,000 cells per well on 12-well plates and were allowed to grow to confluence. To prepare monomeric CRP (mCRP), recombinant CRP was prepared in a PBS solution containing 8 M Urea and 10 mM EDTA and incubated at 37° C. for 2 hours prior to desalting with a Zeba spin column (7K MW cutoff). mCRP was prepared to a 2× solution of 20 μg/mL. A 2× solution of 40 μM peptides was prepared in serum-free DMEM. CRP and peptides were added 1:1 to cells for 24 hours at 37° C. before isolating membrane protein and measuring membrane ABCA1 levels by western blot. Blots were quantified in ImageJ. In FIG. 35, Signals were further normalized to the T-087 treated group to determine percent (%) ABCA1 levels compared to peptide T-087 treated cells. In FIG. 36, Signals were further normalized to the peptide T-101 treated group to determine percent (%) ABCA1 levels compared to peptide T-101 treated cells.

[5] = target: LDLR (Homo sapiens, UniProt P01130); assay: LDLR binding (SPR), high surfactant preparation; conditions: high surfactant preparation (HBS-P+), 1:1 binding model; read-out: binding KD to LDLR
Experimental: The table shown in FIG. 23 illustrates LDLR binding data (SPR), using a high surfactant preparation. Recombinant LDLR was diluted in 10 mM acetate buffer pH 4.5 and amine coupled to a CM5 chip at 1000 RU. Peptides were diluted to 5 μM in running buffer (HBS-P+, 1 mM CaCl2) and serially diluted 1:3 for 5 total concentrations. Peptides were exposed to immobilized LDLR at a rate of […] for 120 seconds. Between cycles, the chip surface was regenerated with 3 injections of 50 mM NaOH/100 mM EDTA. Multi-Cycle Kinetics was performed on a Biacore Insight Evaluation Software and binding kinetics were analyzed with a 1:1 binding model.

T1 sequence (O95477 whole entry): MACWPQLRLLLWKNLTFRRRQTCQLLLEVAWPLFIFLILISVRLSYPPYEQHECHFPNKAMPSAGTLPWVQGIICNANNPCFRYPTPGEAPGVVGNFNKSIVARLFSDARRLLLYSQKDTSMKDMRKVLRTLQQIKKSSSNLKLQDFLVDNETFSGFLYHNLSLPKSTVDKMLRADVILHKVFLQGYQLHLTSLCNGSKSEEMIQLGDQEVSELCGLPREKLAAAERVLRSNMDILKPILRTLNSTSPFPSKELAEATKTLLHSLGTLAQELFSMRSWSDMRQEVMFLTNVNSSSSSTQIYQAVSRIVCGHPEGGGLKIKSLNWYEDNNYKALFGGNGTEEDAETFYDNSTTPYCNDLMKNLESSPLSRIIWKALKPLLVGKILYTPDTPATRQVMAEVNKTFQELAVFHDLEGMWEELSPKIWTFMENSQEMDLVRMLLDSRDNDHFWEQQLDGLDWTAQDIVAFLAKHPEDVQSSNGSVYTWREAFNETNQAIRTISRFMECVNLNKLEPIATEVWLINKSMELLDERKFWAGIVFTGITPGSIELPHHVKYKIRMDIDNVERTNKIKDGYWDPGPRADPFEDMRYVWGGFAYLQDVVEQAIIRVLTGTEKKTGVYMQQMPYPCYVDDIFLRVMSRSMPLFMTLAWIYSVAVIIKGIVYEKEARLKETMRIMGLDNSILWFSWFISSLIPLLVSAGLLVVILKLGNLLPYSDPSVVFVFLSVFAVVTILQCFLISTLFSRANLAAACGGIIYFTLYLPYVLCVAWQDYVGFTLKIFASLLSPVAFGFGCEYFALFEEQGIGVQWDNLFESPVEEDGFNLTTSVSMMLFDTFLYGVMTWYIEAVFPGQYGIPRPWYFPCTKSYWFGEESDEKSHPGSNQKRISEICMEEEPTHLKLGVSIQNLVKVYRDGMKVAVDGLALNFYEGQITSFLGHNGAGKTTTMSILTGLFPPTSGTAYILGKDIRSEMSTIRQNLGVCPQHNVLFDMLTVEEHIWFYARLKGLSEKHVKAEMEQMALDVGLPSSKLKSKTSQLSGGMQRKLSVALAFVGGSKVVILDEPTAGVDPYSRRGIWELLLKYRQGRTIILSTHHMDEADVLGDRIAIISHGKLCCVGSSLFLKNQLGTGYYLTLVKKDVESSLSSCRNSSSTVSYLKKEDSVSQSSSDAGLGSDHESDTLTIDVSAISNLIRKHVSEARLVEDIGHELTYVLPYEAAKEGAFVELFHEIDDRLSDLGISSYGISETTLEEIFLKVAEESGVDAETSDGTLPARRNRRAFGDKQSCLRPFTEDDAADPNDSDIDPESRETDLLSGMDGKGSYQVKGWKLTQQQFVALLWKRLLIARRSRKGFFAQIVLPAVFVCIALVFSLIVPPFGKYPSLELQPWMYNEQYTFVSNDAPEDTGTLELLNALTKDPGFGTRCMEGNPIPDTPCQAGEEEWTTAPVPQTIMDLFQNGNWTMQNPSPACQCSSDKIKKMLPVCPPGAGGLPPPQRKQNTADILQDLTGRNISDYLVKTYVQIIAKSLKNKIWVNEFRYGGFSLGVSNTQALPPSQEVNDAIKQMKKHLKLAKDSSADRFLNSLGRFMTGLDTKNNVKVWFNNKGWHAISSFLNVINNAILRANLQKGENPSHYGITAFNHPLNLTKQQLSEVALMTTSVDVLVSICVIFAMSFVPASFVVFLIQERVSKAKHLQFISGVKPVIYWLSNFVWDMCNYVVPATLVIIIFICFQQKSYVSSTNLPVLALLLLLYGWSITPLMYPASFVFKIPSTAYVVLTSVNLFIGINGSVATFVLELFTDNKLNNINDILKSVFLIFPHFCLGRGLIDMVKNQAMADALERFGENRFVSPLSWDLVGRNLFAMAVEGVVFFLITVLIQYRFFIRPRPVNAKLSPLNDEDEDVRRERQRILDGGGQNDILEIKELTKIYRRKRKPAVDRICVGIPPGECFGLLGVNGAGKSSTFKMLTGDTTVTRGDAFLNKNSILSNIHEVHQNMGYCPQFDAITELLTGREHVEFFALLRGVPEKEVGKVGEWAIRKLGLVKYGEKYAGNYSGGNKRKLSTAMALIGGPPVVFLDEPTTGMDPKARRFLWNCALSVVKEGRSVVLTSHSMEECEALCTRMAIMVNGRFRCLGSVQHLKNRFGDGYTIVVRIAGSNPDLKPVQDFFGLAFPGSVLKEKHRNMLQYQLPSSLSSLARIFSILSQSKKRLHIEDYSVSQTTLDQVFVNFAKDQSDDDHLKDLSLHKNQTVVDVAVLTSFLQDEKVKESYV
Chain of LDLR (P01130 22-860): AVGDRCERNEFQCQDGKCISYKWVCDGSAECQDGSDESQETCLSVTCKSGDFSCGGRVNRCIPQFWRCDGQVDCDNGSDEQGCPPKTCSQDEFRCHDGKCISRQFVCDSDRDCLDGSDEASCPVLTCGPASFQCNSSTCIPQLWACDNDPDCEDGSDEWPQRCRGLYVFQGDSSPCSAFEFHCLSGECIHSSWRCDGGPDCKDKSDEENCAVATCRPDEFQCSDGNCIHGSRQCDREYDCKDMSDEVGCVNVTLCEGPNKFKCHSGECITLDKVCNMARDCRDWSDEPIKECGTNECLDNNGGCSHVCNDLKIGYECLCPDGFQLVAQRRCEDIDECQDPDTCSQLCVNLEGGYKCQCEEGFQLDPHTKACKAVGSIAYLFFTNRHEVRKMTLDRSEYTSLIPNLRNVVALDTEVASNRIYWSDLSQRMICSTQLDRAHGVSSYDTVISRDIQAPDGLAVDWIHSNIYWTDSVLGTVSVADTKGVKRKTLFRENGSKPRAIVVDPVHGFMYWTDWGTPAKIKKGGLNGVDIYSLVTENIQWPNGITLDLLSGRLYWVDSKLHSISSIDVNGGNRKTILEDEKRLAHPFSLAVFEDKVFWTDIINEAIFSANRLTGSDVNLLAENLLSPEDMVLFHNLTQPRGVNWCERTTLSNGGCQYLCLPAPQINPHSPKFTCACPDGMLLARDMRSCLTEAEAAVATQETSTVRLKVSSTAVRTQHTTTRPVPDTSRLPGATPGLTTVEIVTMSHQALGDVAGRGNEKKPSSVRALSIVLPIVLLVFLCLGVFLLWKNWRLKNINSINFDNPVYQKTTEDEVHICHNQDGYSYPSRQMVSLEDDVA

| membrane ABCA1 levels compared to peptide T-087 treated cells [4] | Molecule | cholesterol efflux following LXR agonist treatment [1] | further results |
| --- | --- | --- | --- |
| – | T-168: variant of peptide T-087 (DAWERFRALFKELGDYFR) | increased cholesterol efflux | – |
| – | T-153: variant of peptide T-087 (DPWERFRALFKELADYFR) | increased cholesterol efflux | – |
| – | T-163: variant of peptide T-087 (DAWERFRALAKELADYFR) | increased cholesterol efflux | activity in key assays of polypeptides homologous to T-087 [2]: sustained or improved activity |
| – | T-129: variant of peptide T-101 (RSGADALEAALKELKRFIREWT) | – | cholesterol efflux in the presence of LXR agonist [3]: greater cholesterol efflux; activity in key assays of polypeptides of the SEQ ID NO. 101 family [2]: sustained or improved activity |
| reduction of membrane ABCA1 levels | T-155: variant of peptide T-087 (DAAERFRALFKELADYFR) | increased cholesterol efflux | – |
| – | T-154: variant of peptide T-087 (DGWERFRALFKELADYFR) | increased cholesterol efflux | – |
| reduction of membrane ABCA1 levels | T-167: variant of peptide T-087 (DAWERFRALFKELPDYFR) | increased cholesterol efflux | – |
| – | T-136: variant of peptide T-101 (RSGADALESALKELKAFIREWT) | – | cholesterol efflux in the presence of LXR agonist [3]: greater cholesterol efflux; activity in key assays of polypeptides of the SEQ ID NO. 101 family [2]: sustained or improved activity |
| – | T-171: variant of peptide T-087 (DAWERFRALFKELADYAR) | increased cholesterol efflux | – |
| – | T-164: variant of peptide T-087 (DAWERFRALFAELADYFR) | increased cholesterol efflux | – |
| – | T-139: variant of peptide T-101 (RSGADALESALKELKRFIAEWT) | – | cholesterol efflux in the presence of LXR agonist [3]: greater cholesterol efflux; activity in key assays of polypeptides of the SEQ ID NO. 101 family [2]: sustained or improved activity |
| – | T-174: variant of peptide T-087 (DAWAAARALFKELADYFR) | increased cholesterol efflux | – |
| – | T-176: variant of peptide T-087 (DAWERFRALAAALADYFR) | increased cholesterol efflux | – |
| – | T-123: variant of peptide T-101 (RSAADALESALKELKRFIREWT) | – | cholesterol efflux in the presence of LXR agonist [3]: greater cholesterol efflux; activity in key assays of polypeptides of the SEQ ID NO. 101 family [2]: sustained or improved activity |
| – | T-175: variant of peptide T-087 (DAWERFAAAFKELADYFR) | increased cholesterol efflux | – |
| – | T-178: variant of peptide T-087 (DAWERFRALFKELADAAA) | increased cholesterol efflux | – |
| reduction of membrane ABCA1 levels | T-170: variant of peptide T-087 (DAWERFRALFKELADAFR) | increased cholesterol efflux | – |
| reduction of membrane ABCA1 levels | T-159: variant of peptide T-087 (DAWERFAALFKELADYFR) | increased cholesterol efflux | – |
| reduction of membrane ABCA1 levels | T-157: variant of peptide T-087 (DAWEAFRALFKELADYFR) | increased cholesterol efflux | – |
| reduction of membrane ABCA1 levels | T-158: variant of peptide T-087 (DAWERARALFKELADYFR) | increased cholesterol efflux | – |
| – | CC(C)C[C@H](NC(=O)[C@H](CCCNC(=N)N)NC(=O)[C@H](CCCCN)NC(=O)[C@H](CCC(N)=O)NC(=O)[C@H](CC(C)C)NC(=O)[C@H](CCCCN)NC(=O)[C@H](CC(=O)O)NC(=O)CNC(=O)[C@H](CC(=O)O)NC(=O)[C@H](CCCNC(=N)N)NC(=O)[C@H](CC(C)C)NC(=O)[C@H](CC(C)C)NC(=O)[C@H](CCCNC(=N)N)NC(=O)[C@H](CCCCN)NC(=O)[C@H](CCCNC(=N)N)NC(=O)[C@H](CC(C)C)NC(=O)[C@H](CCCCN)NC(=O)[C@H](CCCNC(=N)N)NC(=O)[C@H](CC(C)C)NC(=O)[C@@H](N)Cc1c[nH]cn1)C(=O)N[C@@H](C)C(=O)N[C@@H](CCC(=O)O)C(=O)N[C@@H](Cc1ccc(O)cc1)C(=O)N[C@@H](CCC(N)=O)C(=O)N[C@@H](C)C(=O)N[C@@H](CCCNC(=N)N)C(=O)N[C@@H](C)C(=O)N[C@@H](CCCCN)C(=O)N[C@@H](CCC(=O)O)C(=O)N[C@@H](C)C(=O)N[C@@H](Cc1ccccc1)C(=O)N[C@@H](CC(=O)O)C(=O)N[C@@H](CCCNC(=N)N)C(=O)O [T-052] (H-HLRKLRKRLLRDGDKLQKRLAEYQARAKEAFDR-OH) | – | pKd [5]: > 5.00 |
| – | T-122: variant of peptide T-101 (RAGADALESALKELKRFIREWT) | – | cholesterol efflux in the presence of LXR agonist [3]: greater cholesterol efflux; activity in key assays of polypeptides of the SEQ ID NO. 101 family [2]: sustained or improved activity |
| reduction of membrane ABCA1 levels | T-162: variant of peptide T-087 (DAWERFRAAFKELADYFR) | increased cholesterol efflux | – |
| reduction of membrane ABCA1 levels | T-156: variant of peptide T-087 (DAWARFRALFKELADYFR) | increased cholesterol efflux | – |
| reduction of membrane ABCA1 levels | T-166: variant of peptide T-087 (DAWERFRALFKEAADYFR) | increased cholesterol efflux | – |
